Article PMC3556479 (Biochemistry, 2013)

Key:
Assay type in all cases: biochemical
[1] = molecular target: T1, orotidine 5′-monophosphate decarboxylase (OMPDC) (Saccharomyces cerevisiae, UniProt P03962, S2H/C155S/A160S/N267D)
T1 sequence (P03962 2-267 S2H/C155S/A160S/N267D): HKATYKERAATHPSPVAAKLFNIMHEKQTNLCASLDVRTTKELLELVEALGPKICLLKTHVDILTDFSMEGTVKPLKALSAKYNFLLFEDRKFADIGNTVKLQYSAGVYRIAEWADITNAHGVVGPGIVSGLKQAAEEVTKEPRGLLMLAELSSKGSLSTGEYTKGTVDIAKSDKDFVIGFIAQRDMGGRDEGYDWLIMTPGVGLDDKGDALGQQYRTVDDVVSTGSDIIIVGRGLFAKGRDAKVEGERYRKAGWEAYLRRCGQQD

[2] = molecular target: T1, orotidine 5′-monophosphate decarboxylase (OMPDC); remark: listed apart in the source
[3] = molecular target: T2, orotidine 5′-monophosphate decarboxylase (OMPDC) (Saccharomyces cerevisiae, UniProt P03962, A160S/C155S/N267D/S2H); assay: activation of FEO decarboxylation by added phosphite, nonlinear fit to eq […]
T2 sequence (P03962 2-267 S2H/C155S/A160S/N267D): T1 sequence (P03962 2-267 S2H/C155S/A160S/N267D)

## C[C@H]1O[C@@H](n2c(C(=O)O)c(F)c(=O)[nH]c2=O)[C@H](O)[C@@H]1O [5′-dFO, 5′-Deoxy-5-fluoroorotidine]
[1]
  HPLC initial-velocity decarboxylation assay, purified yeast OMPDC, with and with: 0.078 M^−1 s^−1 (kcat/Km)

## O=C(O)c1c(F)c(=O)[nH]c(=O)n1[C@@H]1OC[C@@H](O)[C@H]1O [FEO, 1-(β-D-Erythrofuranosyl)-5-fluoroorotic acid]
[2]
  spectrophotometric decarboxylation assay at 282 nm, purified yeast OMPDC, with a: 10 M^−1 s^−1 (kcat/Km)

## O=[PH](O)O [HPO3^2−, phosphite dianion]
[3]
  Kd: 100 mM
